{"source": "patent US20020192703A1", "about": "“Immunoassay reagents and methods for determination of LSD and LSD metabolites” (priority 1995, published 2002)", "key": {"[1]": {"test": "Urine time course after LSD administration, GC/MS", "type": "in vivo", "settings": "human", "description": "In this example, experiments were performed to better define the time course of excretion of LSD metabolites in urine, and the ability of various immunoassays to detect them.\nIndividuals were administered LSD, and urine samples were collected over a four-day period. The samples were assayed using the LSD enzyme-complementation immunoassay described in Examples 9 and 10 using monoclonal antibody 19A7. The samples were also measured using the DPC radioimmunoassay (“Coat-A-Count”® LSD assay, by Diagnostic Products Company) according to manufacturer's directions, and by GC/MS).\nResults are shown in the following table in terms of LSD equivalents (translating the signal generated using a standard curve obtained with known concentrations of LSD)."}, "[2]": {"settings": "in man; calculated; cited from earlier work"}, "monoclonal antibody 19A7": {"tested_on": "monoclonal antibody 19A7", "type": "binding, mice", "settings": "Concentration Added 0.5 ng/ml", "description": "Cross-reactivity was tested by spiking various potential cross-reactants into human urine containing a preservative."}, "central nervous system": {"tested_on": "central nervous system", "settings": "hallucinations, distortions in sensory perception, mood changes; cited from earlier work"}}}
{"smiles": "CCN(CC)C(=O)[C@@H]1C=C2c3cccc4[nH]cc(c34)C[C@H]2N(C)C1", "note": "[LSD, lysergic acid diethylamide]", "values": [{"measurement": "concentration at 4 h", "setting": "[1]; urine sample JS U3, 4 hrs after LSD administration", "result": 0.39, "unit": "ng/mL"}, {"measurement": "concentration at 6 h", "setting": "[1]; urine sample JS U4, 6 hrs after LSD administration", "result": 0.37, "unit": "ng/mL"}, {"measurement": "concentration at 8 h", "setting": "[1]; urine sample JS U5, 8 hrs after LSD administration", "result": 0.38, "unit": "ng/mL"}, {"measurement": "concentration at 10 h", "setting": "[1]; urine sample JS U6, 10 hrs after LSD administration", "result": 0.64, "unit": "ng/mL"}, {"measurement": "concentration at 12 h", "setting": "[1]; urine sample JS U7, 12 hrs after LSD administration", "result": 0.52, "unit": "ng/mL"}, {"measurement": "concentration at 24 h", "setting": "[1]; urine sample JS U8, 24 hrs after LSD administration", "result": 0.34, "unit": "ng/mL"}, {"measurement": "concentration at 36 h", "setting": "[1]; urine sample JS U9, 36 hrs after LSD administration", "result": 0.03, "unit": "ng/mL"}, {"measurement": "concentration at 48 h", "setting": "[1]; urine sample JS U10, 48 hrs after LSD administration", "result": 0.01, "unit": "ng/mL"}, {"measurement": "concentration at 60 h", "setting": "[1]; urine sample JS U11, 60 hrs after LSD administration", "result": 0, "unit": "ng/mL"}, {"measurement": "concentration at 72 h", "setting": "[1]; urine sample JS U12, 72 hrs after LSD administration", "result": 0.02, "unit": "ng/mL"}, {"measurement": "concentration at 84 h", "setting": "[1]; urine sample JS U13, 84 hrs after LSD administration", "result": 0, "unit": "ng/mL"}, {"measurement": "concentration at 98 h", "setting": "[1]; urine sample JS U14, 98 hrs after LSD administration", "result": 0, "unit": "ng/mL"}, {"measurement": "concentration at 2 h", "setting": "[1]; urine sample SW U2, 2 hrs after LSD administration", "result": 0.33, "unit": "ng/mL"}, {"measurement": "concentration at 4 h", "setting": "[1]; urine sample SW U3, 4 hrs after LSD administration", "result": 0.54, "unit": "ng/mL"}, {"measurement": "concentration at 8 h", "setting": "[1]; urine sample SW U4, 8 hrs after LSD administration", "result": 0.52, "unit": "ng/mL"}, {"measurement": "concentration at 8 h", "setting": "[1]; urine sample SW U5, 8 hrs after LSD administration", "result": 0.71, "unit": "ng/mL"}, {"measurement": "concentration at 10 h", "setting": "[1]; urine sample SW U6, 10 hrs after LSD administration", "result": 0.76, "unit": "ng/mL"}, {"measurement": "concentration at 12 h", "setting": "[1]; urine sample SW U7, 12 hrs after LSD administration", "result": 1.77, "unit": "ng/mL"}, {"measurement": "concentration at 24 h", "setting": "[1]; urine sample SW U8, 24 hrs after LSD administration", "result": 1.42, "unit": "ng/mL"}, {"measurement": "concentration at 36 h", "setting": "[1]; urine sample SW U9, 36 hrs after LSD administration", "result": 0.11, "unit": "ng/mL"}, {"measurement": "concentration at 48 h", "setting": "[1]; urine sample SW U10, 48 hrs after LSD administration", "result": 0.04, "unit": "ng/mL"}, {"measurement": "concentration at 60 h", "setting": "[1]; urine sample SW U11, 60 hrs after LSD administration", "result": 0.02, "unit": "ng/mL"}, {"measurement": "concentration at 72 h", "setting": "[1]; urine sample SW U12, 72 hrs after LSD administration", "result": 0, "unit": "ng/mL"}, {"measurement": "concentration at 96 h", "setting": "[1]; urine sample SW U14, 96 hrs after LSD administration", "result": 0.01, "unit": "ng/mL"}, {"measurement": "plasma half-life", "setting": "[2]", "result": "about 3 hours"}, {"measurement": "% Cross-Reactivity", "setting": "monoclonal antibody 19A7; 100 × observed dose / concentration added", "result": 100.00, "unit": "%"}, {"measurement": "Concentration Observed", "setting": "monoclonal antibody 19A7; in human urine", "result": 0.5, "unit": "ng/mL"}, {"measurement": "Oral doses that can cause central nervous system disturbances (as low as)", "setting": "central nervous system", "result": 25, "unit": "µg"}]}
